# Where “and” joins values, the source holds several entries; their conditions need not be identical. Equal entries are not always repeated. Marks after values point to notes of the source that are not given here.
# Assays:
# [1] = system: Fmr1 knockout mice; experiment: 3 chamber test in Fmr1 knockout mice; format: in vivo; conditions: single subcutaneous administration, low dose of less than 1/10 of 1 mg/kg
# From the text: It is known that patients with human fragile X syndrome (FXS), which is caused by abnormalities of the X chromosome, present with social impairment symptoms, such as those often seen in ASD (Non-patent Documents 7 to 9). The Fmr1 knockout mouse (Cell, 1994, 15; 78 (1): 23-33) is a model mouse that mimics human fragile X syndrome (FXS), and is also widely used as a model of ASD. Buprenorphine hydrochloride, a MOR partial agonist used as an analgesic, and physiological saline of a solvent were administered once, and the action on social dysfunction of Fmr1 knockout mice was examined. The dose was calculated as a free form for buprenorphine. As a social function evaluation, a 3 chamber test (Nature Medicine, 2017, 23; p674-677) was used. In the 3chamber test, two types of mice (Unfamiliar and Familiar) are placed in cups at both left and right ends of three compartments, and a ratio of time to search for a mouse with high novelty to a mouse with low novelty is calculated and quantified as social function (preference to a mouse with high novelty).
# [2] = system: VPA model; experiment: Confirmation of continuous effect: social behavior in VPA model 3 or 12 hours after administration; format: in vivo, mice; conditions: 0.003 mg/kg s.c.
# Description: Saline or buprenorphine was subcutaneously administered to the VPA model in the same manner as in Example 1, and the amount of social behavior for 20 minutes from 3 hour after administration or for 20 minutes from 12 hours after administration was quantified. The improvement effect in social impairment by administration of 0.003 mg/kg of buprenorphine was observed even 3 hours and 12 hours after administration.
# [3] = system: VPA model; experiment: Antagonist test with naloxone in VPA model; format: in vivo, mice; conditions: naloxone hydrochloride 1 mg/kg s.c. 15 minutes before buprenorphine 0.003 mg/kg s.c.
# Description: In the same manner as in Example 1, to the VPA model, Saline or a MOR selective antagonist, naloxone hydrochloride was subcutaneously administered so as to be 1 mg/kg as a hydrochloride, and 15 minutes after that, 0.003 mg/kg of buprenorphine was subcutaneously administered, and the amount of social behavior for 1 hour from 20 minutes after administration of buprenorphine was quantified.
# [4] = system: nucleus accumbens (NAc); experiment: Brain activation: c-Fos positive cells in nucleus accumbens; format: in vivo, mice; conditions: VPA model, 1 hour after administration
# Description: (§1) Saline or buprenorphine at 0.0003, 0.003, or 0.03 mg/kg was administered to the VPA model, and 1 hour after that, the brain was extracted and immunostained with an anti-c-Fos antibody, and the number of c-Fos positive cells in nucleus accumens (NAc) and medial prefrontal cortex, which are brain regions known to promote social behavior, and dorsomedial periaqueductal gray (dmPAG), which is a brain region known to reduce social behavior and to be involved in the expression of analgesic effects, was quantified as the number of activated nerve cells.
# [5] = Estimation of buprenorphine maximum plasma concentration in humans by proportional calculation; conditions: human, other: transdermal, 10 ug/kg
# Description: As described above, preferred maximum plasma concentrations in ASD applications in mice are in the range of 26.6 pg/mL (at the time of administration of 0.3 pg/kg) to 2360 μg/mL (at the time of administration of 30p/kg) (preferably more than about 26.6 pg/mL and less than about 2360 μg/mL).
# [6] = system: medial prefrontal cortex; experiment: Brain activation: c-Fos positive cells in medial prefrontal cortex; format: in vivo, mice; conditions: VPA model, 1 hour after administration
# Description: as §1
# [7] = Pharmacokinetic: drug concentrations in plasma by LC-MS after subcutaneous administration; conditions: for concentration at 0.5 h: Plasma concentration 0.5 hr; for concentration at 1 h: Plasma concentration 1 hr; for concentration at 3 h: Plasma concentration 3 hr; for concentration at 12 h: Plasma concentration 12 hr; for concentration at 24 h: Plasma concentration 24 hr
# [8] = system: mice; conditions: Non-patent Document 28, cited from earlier work
# [9] = system: dorsomedial periaqueductal gray (dmPAG); experiment: Brain activation: c-Fos positive cells in dorsomedial periaqueductal gray; format: in vivo, mice; conditions: VPA model, 1 hour after administration
# Description: as §1
# [10] = ICR mice, buprenorphine 0.1 μg/kg s.c., individual samples
# [11] = ICR mice, buprenorphine 0.3 μg/kg s.c., individual samples
# [12] = ICR mice, buprenorphine 3 μg/kg s.c., individual samples
# [13] = ICR mice, buprenorphine 10 μg/kg s.c., individual samples
# [14] = ICR mice, buprenorphine 30 μg/kg s.c., individual samples
# [15] = ICR, mouse, plasma, sc, 0.1 μg/kg, ICR mice, buprenorphine 0.1 μg/kg s.c., Mean
# [16] = ICR, mouse, plasma, sc, 0.1 μg/kg, ICR mice, buprenorphine 0.1 μg/kg s.c., individual samples
# [17] = ICR, mouse, plasma, sc, 0.3 μg/kg, ICR mice, buprenorphine 0.3 μg/kg s.c., Mean
# [18] = ICR, mouse, plasma, sc, 0.3 μg/kg, ICR mice, buprenorphine 0.3 μg/kg s.c., individual samples
# [19] = ICR, mouse, plasma, sc, 1 μg/kg, ICR mice, buprenorphine 1 μg/kg s.c., Measured value
# [20] = ICR, mouse, plasma, sc, 3 μg/kg, ICR mice, buprenorphine 3 μg/kg s.c., Mean
# [21] = ICR, mouse, plasma, sc, 3 μg/kg, ICR mice, buprenorphine 3 μg/kg s.c., individual samples
# [22] = ICR, mouse, plasma, sc, 10 μg/kg, ICR mice, buprenorphine 10 μg/kg s.c., Mean
# [23] = ICR, mouse, plasma, sc, 10 μg/kg, ICR mice, buprenorphine 10 μg/kg s.c., individual samples
# [24] = ICR, mouse, plasma, sc, 30 μg/kg, ICR mice, buprenorphine 30 μg/kg s.c., Mean
# [25] = ICR, mouse, plasma, sc, 30 μg/kg, ICR mice, buprenorphine 30 μg/kg s.c., individual samples
structure (smiles),measurement,setting,value
"CO[C@]12CC[C@@]3(C[C@@H]1[C@](C)(O)C(C)(C)C)[C@H]1Cc4ccc(O)c5c4[C@@]3(CCN1CC1CC1)[C@H]2O5 [buprenorphine, 21-cyclopropyl-7-a-[(S)-1-hydroxy-1,2,2-trimethylpropyl]-6,14-endo-ethano-6,7,8,14 tetrahydrooripavine]",improvement effect in social impairment (3 chamber test),[1],significant improvement effect in social impairment
same,improvement effect in social impairment 3 hours after administration,[2]; 20 minutes from 3 hour after administration,observed
same,improvement effect in social impairment 12 hours after administration,[2]; 20 minutes from 12 hours after administration,observed
same,improvement effect in social impairment with combined use of naloxone,[3],antagonized by combined use of naloxone
same,number of activated nerve cells (c-Fos positive cells),[4]; 0.003 mg/kg,significantly increased
same,number of activated nerve cells (c-Fos positive cells),[4]; 0.03 mg/kg,significantly increased
same,Cmax,[5],0.084 to 0.176 ng/mL
same,number of activated nerve cells (c-Fos positive cells),[6]; 0.003 mg/kg,significantly increased
same,number of activated nerve cells (c-Fos positive cells),[6]; 0.03 mg/kg,significantly increased
same,Plasma concentration 0.5 hr,[7]; [10],6.85 pg/mL and 6.52 pg/mL
same,Plasma concentration 1 hr,[7]; [10],4.66 pg/mL and 5.36 pg/mL
same,Plasma concentration 3 hr,[7]; [10],BLQ (BLQ: LLOQ (lower limit of quantitation: 2 pg/mL) or less)
same,Plasma concentration 12 hr,[7]; [10],BLQ (BLQ: LLOQ (lower limit of quantitation: 2 pg/mL) or less)
same,Plasma concentration 24 hr,[7]; [10],BLQ (BLQ: LLOQ (lower limit of quantitation: 2 pg/mL) or less)
same,Plasma concentration 0.5 hr,[7]; [11],26 pg/mL and 30.9 pg/mL
same,Plasma concentration 1 hr,[7]; [11],13.7 pg/mL and 16.5 pg/mL
same,Plasma concentration 3 hr,[7]; [11],5.08 pg/mL and 4.87 pg/mL
same,Plasma concentration 12 hr,[7]; [11],BLQ (BLQ: LLOQ (lower limit of quantitation: 2 pg/mL) or less)
same,Plasma concentration 24 hr,[7]; [11],BLQ (BLQ: LLOQ (lower limit of quantitation: 2 pg/mL) or less)
same,Cmax,"[7]; ICR mice, buprenorphine 1 μg/kg s.c.",0.067 ng/mL
same,Plasma concentration 0.5 hr,[7]; [12],260 pg/mL and 271 pg/mL
same,Plasma concentration 1 hr,[7]; [12],119 pg/mL and 127 pg/mL
same,Plasma concentration 3 hr,[7]; [12],47.6 pg/mL and 83.3 pg/mL
same,Plasma concentration 12 hr,[7]; [12],3.58 pg/mL and 3.46 pg/mL
same,Plasma concentration 24 hr,[7]; [12],BLQ (BLQ: LLOQ (lower limit of quantitation: 2 pg/mL) or less)
same,Cmax,"[7]; ICR mice, buprenorphine 10 μg/kg s.c.",0.67 ng/mL
same,Plasma concentration 0.5 hr,[7]; [13],711* pg/mL and 666* pg/mL
same,Plasma concentration 1 hr,[7]; [13],471* pg/mL and 367* pg/mL
same,Plasma concentration 3 hr,[7]; [13],145 pg/mL and 135 pg/mL
same,Plasma concentration 12 hr,[7]; [13],17.1 pg/mL and 27.1 pg/mL and 6.69 pg/mL
same,Plasma concentration 24 hr,[7]; [13],BLQ (BLQ: LLOQ (lower limit of quantitation: 2 pg/mL) or less)
same,Cmax,"[7]; ICR mice, buprenorphine 30 μg/kg s.c.",2.36 ng/mL
same,Plasma concentration 0.5 hr,[7]; [14],2560* pg/mL and 2770* pg/mL
same,Plasma concentration 1 hr,[7]; [14],1480* pg/mL and 1670* pg/mL
same,Plasma concentration 3 hr,[7]; [14],436* pg/mL and 494* pg/mL
same,Plasma concentration 12 hr,[7]; [14],31.2 pg/mL and 72.7 pg/mL and 31.3 pg/mL
same,Plasma concentration 24 hr,[7]; [14],7.68 pg/mL and 4.2 pg/mL
same,Cmax,"[7]; ICR, mouse, plasma, sc, 0.1 ug/kg",0.00778 ng/mL
same,concentration at 0.5 h,[7]; [15],0.00778 ng/mL
same,concentration at 0.5 h,[7]; [16],0.00998 ng/mL
same,concentration at 1 h,[7]; [15],0.00485 ng/mL
same,concentration at 1 h,[7]; [16],0.00452 ng/mL
same,concentration at 3 h,[7]; [15],0.001 ng/mL
same,concentration at 3 h,[7]; [16],0.00299 ng/mL
same,concentration at 12 h,[7]; [15],0 ng/mL
same,concentration at 24 h,[7]; [15],0 pg/mL
same,Cmax,"[7]; ICR, mouse, plasma, sc, 0.3 ug/kg",0.0266 ng/mL
same,concentration at 0.5 h,[7]; [17],0.0266 ng/mL
same,concentration at 0.5 h,[7]; [18],0.0228 ng/mL
same,concentration at 1 h,[7]; [17],0.0148 ng/mL
same,concentration at 1 h,[7]; [18],0.0143 ng/mL
same,concentration at 3 h,[7]; [17],0.00477 ng/mL
same,concentration at 3 h,[7]; [18],0.00436 ng/mL
same,concentration at 12 h,[7]; [17],0 ng/mL
same,concentration at 24 h,[7]; [17],0 pg/mL
same,Cmax,"[7]; ICR, mouse, plasma, sc, 1 ug/kg",0.067 ng/mL
same,concentration at 0.5 h,[7]; [19],0.067 ng/mL
same,concentration at 1 h,[7]; [19],0.025 ng/mL
same,concentration at 3 h,[7]; [19],0.02 ng/mL
same,Cmax,"[7]; ICR, mouse, plasma, sc, 3 ug/kg",0.268 ng/mL
same,concentration at 0.5 h,[7]; [20],0.268 ng/mL
same,concentration at 0.5 h,[7]; [21],0.274 ng/mL
same,concentration at 1 h,[7]; [20],0.126 ng/mL
same,concentration at 1 h,[7]; [21],0.132 ng/mL
same,concentration at 3 h,[7]; [20],0.0641 ng/mL
same,concentration at 3 h,[7]; [21],0.0613 ng/mL
same,concentration at 12 h,[7]; [20],0.00312 ng/mL
same,concentration at 12 h,[7]; [21],0.00231 ng/mL
same,concentration at 24 h,[7]; [20],0 pg/mL
same,Cmax,"[7]; ICR, mouse, plasma, sc, 10 ug/kg",0.67 ng/mL
same,concentration at 0.5 h,[7]; [22],0.67 ng/mL
same,concentration at 0.5 h,[7]; [23],0.632 ng/mL
same,concentration at 1 h,[7]; [22],0.399 ng/mL
same,concentration at 1 h,[7]; [23],0.358 ng/mL
same,concentration at 3 h,[7]; [22],0.147 ng/mL
same,concentration at 3 h,[7]; [23],0.16 ng/mL
same,concentration at 12 h,[7]; [22],0.017 ng/mL
same,concentration at 24 h,[7]; [22],0.777 pg/mL
same,concentration at 24 h,[7]; [23],2.33 pg/mL
same,Cmax,"[7]; ICR, mouse, plasma, sc, 30 ug/kg",2.36 ng/mL
same,concentration at 0.5 h,[7]; [24],2.36 ng/mL
same,concentration at 0.5 h,[7]; [25],1.76 ng/mL
same,concentration at 1 h,[7]; [24],1.49 ng/mL
same,concentration at 1 h,[7]; [25],1.32 ng/mL
same,concentration at 3 h,[7]; [24],0.447 ng/mL
same,concentration at 3 h,[7]; [25],0.412 ng/mL
same,concentration at 12 h,[7]; [24],0.0451 ng/mL
same,concentration at 24 h,[7]; [24],5.51 pg/mL
same,concentration at 24 h,[7]; [25],4.64 pg/mL
same,dose at which the analgesic effect was maximum,[8],1 mg/kg
same,minimum dose at which the analgesic effect is observed,[8]; subcutaneous administration,10 µg/kg
same,number of activated nerve cells (c-Fos positive cells),[9]; 0.003 mg/kg,no change
same,number of activated nerve cells (c-Fos positive cells),[9]; 0.03 mg/kg,significantly increased

# Reference: patent US20250073226A1, “USE OF OPIOID FOR TREATMENT OF AUTISM SPECTRUM DISORDERS” (priority 2021, published 2025)
